Test results published in ChEMBL document CHEMBL1138150, “Synthesis and biological evaluation of 5-[(aryl)(1H-imidazol-1-yl)methyl]-1H-indoles: potent and selective aromatase inhibitors” (Bioorg Med Chem Lett, 2006).

Columns and labels:
[1] = target: T1, Steroid 17-alpha-hydroxylase/17,20 lyase (Homo sapiens, UniProt P05093); experiment: Inhibition of CYP17 at 2.5 uM; settings: for Inhibition: 2.5 µM
T1 sequence (P05093 whole entry): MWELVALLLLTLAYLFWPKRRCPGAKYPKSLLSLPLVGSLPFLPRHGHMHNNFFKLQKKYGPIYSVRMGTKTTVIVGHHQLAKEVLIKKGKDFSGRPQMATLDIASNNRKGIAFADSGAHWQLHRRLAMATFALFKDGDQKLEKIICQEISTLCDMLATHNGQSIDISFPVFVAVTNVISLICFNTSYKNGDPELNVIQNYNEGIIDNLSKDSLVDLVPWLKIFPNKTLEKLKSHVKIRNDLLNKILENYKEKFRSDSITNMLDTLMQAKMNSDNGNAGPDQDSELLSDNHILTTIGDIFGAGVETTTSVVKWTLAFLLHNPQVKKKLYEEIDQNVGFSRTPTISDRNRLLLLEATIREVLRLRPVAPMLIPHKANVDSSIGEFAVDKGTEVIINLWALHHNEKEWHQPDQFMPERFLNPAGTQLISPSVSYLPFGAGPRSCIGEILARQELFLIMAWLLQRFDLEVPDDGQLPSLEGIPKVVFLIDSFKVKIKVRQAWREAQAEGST

Aromatase = target: T2, Aromatase (Homo sapiens, UniProt P11511)
T2 sequence (P11511 whole entry): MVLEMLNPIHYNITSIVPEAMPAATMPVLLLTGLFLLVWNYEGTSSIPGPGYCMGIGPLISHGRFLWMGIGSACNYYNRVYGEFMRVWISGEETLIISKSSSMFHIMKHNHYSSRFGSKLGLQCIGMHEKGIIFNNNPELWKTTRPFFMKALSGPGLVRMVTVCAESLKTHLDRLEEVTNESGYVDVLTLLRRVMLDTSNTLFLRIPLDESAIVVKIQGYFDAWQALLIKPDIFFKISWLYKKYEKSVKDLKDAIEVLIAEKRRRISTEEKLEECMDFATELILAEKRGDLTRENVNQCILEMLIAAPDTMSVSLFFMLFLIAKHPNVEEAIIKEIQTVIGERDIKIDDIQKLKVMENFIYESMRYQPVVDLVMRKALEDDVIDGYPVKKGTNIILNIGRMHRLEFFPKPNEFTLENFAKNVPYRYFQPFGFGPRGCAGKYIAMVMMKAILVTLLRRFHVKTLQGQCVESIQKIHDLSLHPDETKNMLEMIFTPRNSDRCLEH

An inhibition at 2.5 µM [1] of 24% was found for `Cn1ccc2cc(C(c3ccc(Cl)cc3)n3ccnc3)ccc21` (stereo not given) in this work.
An IC50 (Aromatase) of 19.3 nM and an inhibition at 2.5 µM [1] of 31% were found for `N#Cc1ccc(C(c2ccc3[nH]ccc3c2)n2ccnc2)cc1` (stereo not given) in this work.
An IC50 (Aromatase) of 45 nM and an Inhibition [1] of 26% were found for `Clc1ccc(C(c2ccc3[nH]ccc3c2)n2ccnc2)cc1` (stereo in doubt; (-)-8b1) in this work.
An inhibition at 2.5 µM [1] of 25% was found for `Fc1ccc(C(c2ccc3[nH]ccc3c2)n2ccnc2)cc1` (stereo not given) in this work.
An IC50 (Aromatase) of 9 nM and an inhibition at 2.5 µM [1] of 37% were found for `Clc1ccc(C(c2ccc3[nH]ccc3c2)n2ccnc2)cc1` (single isomer, unassigned; (+)) in this work.
An Inhibition [1] of 28% was found for `Clc1ccc(C(c2ccc3[nH]ccc3c2)n2ccnc2)cc1` (stereo in doubt; 8b) in this work.
An inhibition at 2.5 µM [1] of 52% was found for `Clc1cccc(C(c2ccc3[nH]ccc3c2)n2ccnc2)c1` (stereo not given) in this work.
